Experimental data: PMC1198225, “Novel curcumin- and emodin-related compounds identified by in silico 2D/3D conformer screening induce apoptosis in tumor cells” (BMC Cancer, 2005)
Read-outs that look alike come from different tables or passages of the source.

Experiments:
Recombinant CK2 (2α2β) = target: T1, Recombinant CK2 (2α2β) (Homo sapiens, UniProt P68400); assay: [γ-32P]ATP phosphorylation of c-Jun, SDS-PAGE autoradiography, densitometry; assay type: biochemical
T1 construct: gene CSNK2A1; commercial recombinant holoenzyme (Calbiochem), alpha2beta2 tetramer; with Casein kinase II subunit beta
Excerpt: [γ-32P]ATP phosphorylation of c-Jun, SDS-PAGE autoradiography, densitometry on Recombinant CK2 (2α2β)

recombinant PKD = target: T2, recombinant PKD (Homo sapiens, UniProt Q15139); assay: as above; assay type: biochemical
T2 construct: gene PRKD1; commercial recombinant kinase (Upstate)
T2 sequence (Q15139 1-912): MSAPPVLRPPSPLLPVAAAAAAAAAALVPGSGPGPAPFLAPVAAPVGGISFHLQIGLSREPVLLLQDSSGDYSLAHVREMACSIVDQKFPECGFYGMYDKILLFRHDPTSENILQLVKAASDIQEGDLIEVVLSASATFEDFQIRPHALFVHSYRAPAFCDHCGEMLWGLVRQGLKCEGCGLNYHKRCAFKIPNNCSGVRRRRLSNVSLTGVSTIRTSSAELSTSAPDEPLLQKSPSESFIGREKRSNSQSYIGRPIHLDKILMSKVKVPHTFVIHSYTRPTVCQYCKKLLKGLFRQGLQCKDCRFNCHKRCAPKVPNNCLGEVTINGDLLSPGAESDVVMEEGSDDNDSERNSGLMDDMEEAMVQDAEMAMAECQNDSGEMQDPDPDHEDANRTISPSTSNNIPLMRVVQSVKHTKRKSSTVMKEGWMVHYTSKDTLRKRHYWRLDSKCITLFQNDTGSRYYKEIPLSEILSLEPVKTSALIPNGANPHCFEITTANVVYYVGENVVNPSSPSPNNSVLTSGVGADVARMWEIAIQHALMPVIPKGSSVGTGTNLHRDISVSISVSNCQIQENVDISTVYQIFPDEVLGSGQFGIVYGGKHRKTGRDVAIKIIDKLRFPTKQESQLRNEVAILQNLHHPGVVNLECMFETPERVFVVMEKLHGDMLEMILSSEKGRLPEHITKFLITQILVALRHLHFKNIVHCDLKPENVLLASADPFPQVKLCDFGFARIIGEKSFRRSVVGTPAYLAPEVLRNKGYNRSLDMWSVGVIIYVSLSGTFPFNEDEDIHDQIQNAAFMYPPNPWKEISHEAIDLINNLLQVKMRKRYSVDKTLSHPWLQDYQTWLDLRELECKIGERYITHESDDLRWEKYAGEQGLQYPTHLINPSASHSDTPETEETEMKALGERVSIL
Excerpt: [γ-32P]ATP phosphorylation of c-Jun, SDS-PAGE autoradiography, densitometry on recombinant PKD

T1 sequence (P68400 whole entry): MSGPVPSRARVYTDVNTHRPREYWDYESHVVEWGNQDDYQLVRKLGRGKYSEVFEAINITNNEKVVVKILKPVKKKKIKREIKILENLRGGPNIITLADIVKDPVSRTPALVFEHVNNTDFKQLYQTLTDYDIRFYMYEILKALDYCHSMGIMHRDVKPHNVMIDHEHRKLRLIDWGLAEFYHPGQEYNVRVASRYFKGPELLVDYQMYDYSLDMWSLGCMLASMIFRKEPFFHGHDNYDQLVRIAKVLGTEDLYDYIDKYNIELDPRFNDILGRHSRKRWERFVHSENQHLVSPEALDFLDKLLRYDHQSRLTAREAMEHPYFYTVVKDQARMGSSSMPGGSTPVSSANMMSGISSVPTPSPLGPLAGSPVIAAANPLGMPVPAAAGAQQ
T1 sequence (P67870 2-215 partner): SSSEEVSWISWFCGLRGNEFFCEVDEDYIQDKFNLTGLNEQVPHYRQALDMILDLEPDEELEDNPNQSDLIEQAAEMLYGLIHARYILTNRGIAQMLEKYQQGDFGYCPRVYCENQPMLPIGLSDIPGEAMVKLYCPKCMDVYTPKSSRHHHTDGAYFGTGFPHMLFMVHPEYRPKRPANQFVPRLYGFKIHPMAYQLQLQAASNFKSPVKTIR

| SMILES | IC50 (Recombinant CK2 (2α2β)) [µM] | IC50 (recombinant PKD) [µM] | IC50 (Recombinant CK2 (2α2β); read-out: IC50 CK2) [µM] | IC50 (recombinant PKD; read-out: IC50 PKD) [µM] |
| --- | --- | --- | --- | --- |
| COc1ccc2c(=O)c3ccccc3n(C)c2c1 [JFD02836, 3-methoxy-10-methyl-9,10-dihydro-9-acridinone] | 19.9 | 39.7 |  |  |
| O=C1C(=CO)c2ccccc2-c2ccccc21 [JFD03665, 10-(hydroxymethylene)phenanthren-9(10H)-one] | 5.9 | 155 |  |  |
| O=C1C=CC(=O)c2c1c(O)c1ccccc1c2O [BTB14431, 9,10-dihydroxy-1,4-dihydroanthracene-1,4-dione] | 6.4 | 68.9 |  |  |
| Oc1cc(O)cc(/C=C/c2ccc(O)c(O)c2)c1 [Piceatannol] |  |  | 2.5 | 0.5 |
| Nc1c2c(nc3cccc(F)c13)OCCC2 [SEW04213, 6-fluoro-3,4-dihydro-2H-pyrano [2,3-b]quinolin-5-amine] | 37.9 | 186 |  |  |
| O=C(NN=Cc1cc(Cl)cc(Cl)c1O)c1ccccn1 [BTB00363, 2-Pyridinecarboxylic acid, [(3,5-dichloro-2-hydroxyphenyl)methylene]hydrazide] |  |  | 333 | 118 |
